# Values joined by “and” are separate entries in the source; they are usually repeats but may differ in a detail not shown here. Identical values can stand only once. Like-named read-outs stand apart in the source and are kept apart here.
# How the values were obtained:
# [1] = tested on: alopecia which is induced by cyclophosphamide; conditions: rats
# [2] = tested on: arabinoside-C induced alopecia; assay: topical application in glycerin to back of arabinoside-C injected rats; assay type: in vivo; set-up: key to Grade of Alopecia: 0 = no alopecia; 1 = less than 20% alopecia; 2 = less than 50% alopecia; 3 = more than 50% alopecia; 4 = total alopecia; conditions: for Grade of Alopecia: arabinoside-C 25 mg/kg 2 h after each treatment
# Procedure: A stock composition of 1 mg. of ammonium trichloro (O,O′-dioxoethylene) tellurate in 1 ml. of glycerin was prepared. The stock composition was diluted with glycerin to give the following concentrations per ml. so that the stated dose could be applied topically by application of 1 ml. of solution. The solution was applied to the entire back surface of rats once daily for a period of 7 days. Two hours after each treatment the rats were injected with 25 mg/kg of arabinoside-C once daily. Control rats were treated with a glycerin and injected with arabinoside-C.
# [3] = tested on: arabinoside-C induced alopecia; assay: arabinoside-C induced alopecia in 8 day old rats, tellurate given i.p. (method of Hussein et al.); assay type: in vivo, Sprauge Dawley rats; conditions: for effect on alopecia of a tellurate regimen / No. of subjects with alopecia grade 0 (no detectable alopecia) / No. of subjects with alopecia grade 1+ (mild, hair loss <50%) / No. of subjects with alopecia grade 2+ (moderately severe, hair loss >50%) / No. of subjects with alopecia grade 3+ (total or virtually total, hair loss >79%): rats; for No. of subjects with alopecia grade 0 (no detectable alopecia) / No. of subjects with alopecia grade 1+ (mild, hair loss <50%) / No. of subjects with alopecia grade 2+ (moderately severe, hair loss >50%) / No. of subjects with alopecia grade 3+ (total or virtually total, hair loss >79%): day 9
# Procedure: 28, 1990, pp. 1564-1566. […] The cycle of treatment lasted 7 days. […] A second experiment was carried out using the same procedure which is outlined above.
# [4] = tested on: alopecia under carboplatinum/etoposide chemotherapy; assay: phase II chemotherapy trial, alopecia score; assay type: in vivo, patients; conditions: Group II: tellurate 3 mg/m^2 three times a week plus carboplatinum/etoposide chemotherapy; 12 weeks after chemotherapy
# Procedure: A phase II chemotherapy trial was carried out in patients having unresectable and metastatic non-small cell lung tumors. The chemotherapy was based on carboplatinum 300.0 mg/m^2/IV daily and etoposide 200.0 mg/m^2 on day 3, 5 and 7 for a total of 12 weeks of chemotherapy which was given to group I. In addition to the same chemotherapy, ammonium trichloro (O,O′-dioxoethylene)tellurate was given to Group II at a dose of 3 mg/m^2 three times a week starting two weeks before the chemotherapy and continued for 12 weeks after the chemotherapy. The alopecia of both groups was observed 12 weeks after the chemotherapy and was as follows: […]
# [5] = tellurate 0.5 mg/Kg IP daily ×7 days with cyclophosphamide 20 mg/kg i.p. ×7 days, listed as ammonium trichloro (0,0′-dioxoethylene) tellurate
# [6] = tellurate 0.5 mg/Kg IP daily ×7 days with arabinoside-C 25 mg/kg i.p., first experiment
# [7] = tellurate 0.5 mg/Kg IP daily ×7 days with arabinoside-C 50 mg/kg i.p., first experiment
# [8] = tellurate 0.5 mg/Kg IP every other day ×7 days with arabinoside-C 25 mg/kg i.p., first experiment
# [9] = tellurate 0.5 mg/Kg IP every other day ×7 days with arabinoside-C 50 mg/kg i.p., first experiment
# [10] = tellurate 0.5 mg/Kg IP every other day ×7 days with arabinoside-C 50 mg/kg i.p., second experiment
# [11] = arabinoside-C 25 mg/kg daily ×7 days alone, first experiment
# [12] = arabinoside-C 50 mg/kg i.p. ×7 days alone, first experiment
# [13] = cyclophosphamide 20 mg/kg i.p. ×7 days alone
smiles,measurement,setting,value
"Cl[TeH]1(Cl)(Cl)OCCO1.N [ammonium-trichloro (O,O′-dioxoethylene) tellurate]",protection against cyclophosphamide induced alopecia,[1]; 0.5 mg/kg/i.p. in conjunction with cyclophosphamide,mild protection
same,"No. of subjects with alopecia grade 1+ (mild, hair loss <50%)",[1]; tellurate 0.5 mg/Kg IP daily ×7 days with cyclophosphamide 20 mg/kg i.p. ×7 days,4
same,No. of subjects with alopecia grade 0 (no detectable alopecia),[1]; [5],2
same,"No. of subjects with alopecia grade 1+ (mild, hair loss <50%)",[1]; [5],2
same,"No. of subjects with alopecia grade 2+ (moderately severe, hair loss >50%)",[1]; [5],1
same,Grade of Alopecia,[2]; 10 ug/rat topical in glycerin once daily 7 days,3 (3 = more than 50% alopecia)
same,Grade of Alopecia,[2]; 20 ug/rat topical in glycerin once daily 7 days,1 (1 = less than 20% alopecia)
same,rats that showed 0% alopecia,"[2]; 50 ug topical, arabinoside-C 25 mg/kg",100%
same,Grade of Alopecia,[2]; 50 ug/rat topical in glycerin once daily 7 days,0
same,Grade of Alopecia,[2]; 100 ug/rat topical in glycerin once daily 7 days,2 (2 = less than 50% alopecia)
same,Grade of Alopecia,[2]; 200 ug/rat topical in glycerin once daily 7 days,3 (3 = more than 50% alopecia)
same,dose response of topical effect on alopecia,"[2]; 10-200 ug/rat topical, arabinoside-C 25 mg/kg",A dose response effect was observed
same,effect on alopecia of a tellurate regimen,[3]; given daily,almost completely avoids alopecia
same,effect on alopecia of a tellurate regimen,[3]; given every other day,provides some protection from alopecia
same,histological examination of the skin,[3]; subjects treated with arabinoside-C and tellurate,no hair loss or reduced hair loss
same,No. of subjects with alopecia grade 0 (no detectable alopecia),[3]; [6],0
same,"No. of subjects with alopecia grade 1+ (mild, hair loss <50%)",[3]; [6],4
same,"No. of subjects with alopecia grade 2+ (moderately severe, hair loss >50%)",[3]; [6],0
same,"No. of subjects with alopecia grade 3+ (total or virtually total, hair loss >79%)",[3]; [6],0
same,No. of subjects with alopecia grade 0 (no detectable alopecia),"[3]; tellurate 0.5 mg/Kg IP daily ×7 days with arabinoside-C 25 mg/kg i.p., second experiment",6
same,No. of subjects with alopecia grade 0 (no detectable alopecia),[3]; [7],0
same,"No. of subjects with alopecia grade 1+ (mild, hair loss <50%)",[3]; [7],3
same,"No. of subjects with alopecia grade 2+ (moderately severe, hair loss >50%)",[3]; [7],1
same,"No. of subjects with alopecia grade 3+ (total or virtually total, hair loss >79%)",[3]; [7],0
same,No. of subjects with alopecia grade 0 (no detectable alopecia),"[3]; tellurate 0.5 mg/Kg IP daily ×7 days with arabinoside-C 50 mg/kg i.p., second experiment",6
same,No. of subjects with alopecia grade 0 (no detectable alopecia),[3]; [8],0
same,"No. of subjects with alopecia grade 1+ (mild, hair loss <50%)",[3]; [8],4
same,"No. of subjects with alopecia grade 2+ (moderately severe, hair loss >50%)",[3]; [8],0
same,"No. of subjects with alopecia grade 3+ (total or virtually total, hair loss >79%)",[3]; [8],0
same,No. of subjects with alopecia grade 0 (no detectable alopecia),"[3]; tellurate 0.5 mg/Kg IP every other day ×7 days with arabinoside-C 25 mg/kg i.p., second experiment",6
same,No. of subjects with alopecia grade 0 (no detectable alopecia),[3]; [9],0
same,"No. of subjects with alopecia grade 1+ (mild, hair loss <50%)",[3]; [9],1
same,"No. of subjects with alopecia grade 2+ (moderately severe, hair loss >50%)",[3]; [9],3
same,"No. of subjects with alopecia grade 3+ (total or virtually total, hair loss >79%)",[3]; [9],0
same,"No. of subjects with alopecia grade 1+ (mild, hair loss <50%)",[3]; [10],1
same,"No. of subjects with alopecia grade 2+ (moderately severe, hair loss >50%)",[3]; [10],2
same,"No. of subjects with alopecia grade 3+ (total or virtually total, hair loss >79%)",[3]; [10],3
same,number with alopecia score 0,[4],122
same,number with alopecia score I (casual alopecia),[4],26
same,number with alopecia score II (>50% alopecia),[4],40
same,number with alopecia score III (<50% alopecia),[4],12
same,number with alopecia score IV (total alopecia),[4],0
same,percentage with alopecia score 0,[4],61.00%
same,percentage with alopecia score I (casual alopecia),[4],13.00%
same,percentage with alopecia score II (>50% alopecia),[4],20.00%
same,percentage with alopecia score III (<50% alopecia),[4],6.00%
same,percentage with alopecia score IV (total alopecia),[4],0.00%
"Nc1ccn([C@@H]2O[C@H](CO)[C@@H](O)[C@@H]2O)c(=O)n1 [arabinoside-C, reference compound]",alopecia,"[2]; all control animals: glycerin topical, arabinoside-C 25 mg/kg once daily",100%
same,No. of subjects with alopecia grade 0 (no detectable alopecia),[3]; [11],0
same,"No. of subjects with alopecia grade 1+ (mild, hair loss <50%)",[3]; [11],0
same,"No. of subjects with alopecia grade 2+ (moderately severe, hair loss >50%)",[3]; [11],0
same,"No. of subjects with alopecia grade 3+ (total or virtually total, hair loss >79%)",[3]; [11],3
same,"No. of subjects with alopecia grade 3+ (total or virtually total, hair loss >79%)","[3]; arabinoside-C 25 mg/kg i.p. ×7 days alone, second experiment",8
same,No. of subjects with alopecia grade 0 (no detectable alopecia),[3]; [12],0
same,"No. of subjects with alopecia grade 1+ (mild, hair loss <50%)",[3]; [12],0
same,"No. of subjects with alopecia grade 2+ (moderately severe, hair loss >50%)",[3]; [12],0
same,"No. of subjects with alopecia grade 3+ (total or virtually total, hair loss >79%)",[3]; [12],4
same,"No. of subjects with alopecia grade 3+ (total or virtually total, hair loss >79%)","[3]; arabinoside-C 50 mg/kg i.p. ×7 days alone, second experiment",8
same,histological examination of the skin,[3]; arabinoside-C treated subjects,almost complete loss of hair follicles
"O=P1(N(CCCl)CCCl)NCCCO1 (centres unmarked) [cyclophosphamide, reference compound]",No. of subjects with alopecia grade 0 (no detectable alopecia),[1]; [13],1
same,"No. of subjects with alopecia grade 1+ (mild, hair loss <50%)",[1]; [13],3 and 2
same,"No. of subjects with alopecia grade 1+ (mild, hair loss <50%)","[1]; cyclophosphamide 20 mg/kg i.p. ×7 days alone, listed as cyclosphosphamide",10
